Measurements from ChEMBL document CHEMBL1201862, “PubChem BioAssay data set” (2004).
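Each compound was tested at five concentrations against cells in 96-well plates for 48 hours. GI50 is the concentration that inhibits growth by half.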 Active and inactive are the calls of the source. Cut-off read from the data, not from the text of the source: active = GI50 up to about 1.1 µM and inactive = higher.

Key:
Assay in all cases: NCI tumour cell line growth inhibition, 48 h
NCI-H226 = test system: NCI-H226
DU-145 = test system: DU-145
UACC-62 = test system: UACC-62
BT-549 = test system: BT-549
ACHN = test system: ACHN
HOP-62 = test system: HOP-62
UACC-257 = test system: UACC-257
SK-MEL-28 = test system: SK-MEL-28
OVCAR-4 = test system: OVCAR-4
MDA-MB-435 = test system: MDA-MB-435
SR = test system: SR
SK-MEL-2 = test system: SK-MEL-2
HCT-116 = test system: HCT-116
NCI/ADR-RES = test system: NCI/ADR-RES
Malme-3M = test system: Malme-3M
HOP-92 = test system: HOP-92
NCI-H460 = test system: NCI-H460
A549 = test system: A549
SNB-19 = test system: SNB-19
MDA-N = test system: MDA-N
SN12C = test system: SN12C
SK-MEL-5 = test system: SK-MEL-5
SF-539 = test system: SF-539
LOX IMVI = test system: LOX IMVI
SF-268 = test system: SF-268
IGROV-1 = test system: IGROV-1
SK-OV-3 = test system: SK-OV-3
OVCAR-8 = test system: OVCAR-8
NCI-H522 = test system: NCI-H522
TK-10 = test system: TK-10
CAKI-1 = test system: CAKI-1
COLO 205 = test system: COLO 205
HCC 2998 = test system: HCC 2998
CCRF-CEM = test system: CCRF-CEM
HCT-15 = test system: HCT-15
U-251 = test system: U-251
UO-31 = test system: UO-31
HT-29 = test system: HT-29
NCI-H23 = test system: NCI-H23
SF-295 = test system: SF-295
HL-60 = test system: HL-60
MCF7 = test system: MCF7
K562 = test system: K562
PC-3 = test system: PC-3
SNB-75 = test system: SNB-75
MDA-MB-231 = test system: MDA-MB-231
OVCAR-5 = test system: OVCAR-5
Hs-578T = test system: Hs-578T
786-0 = test system: 786-0
OVCAR-3 = test system: OVCAR-3
M14 = test system: M14
SW-620 = test system: SW-620
RXF 393 = test system: RXF 393
EKVX = test system: EKVX
RPMI-8226 = test system: RPMI-8226
KM12 = test system: KM12
MOLT-4 = test system: MOLT-4
A498 = test system: A498
T47D = test system: T47D

Measured: GI50

N=C(N)n1nc2c(c1O)CCC2
> 100 µM: HCT-15
inactive: NCI-H226 > 100 µM | DU-145 > 100 µM | UACC-62 > 100 µM | BT-549 > 100 µM | ACHN > 100 µM | HOP-62 > 100 µM | UACC-257 > 100 µM | SK-MEL-28 > 100 µM | OVCAR-4 > 100 µM | MDA-MB-435 > 100 µM | SK-MEL-2 > 100 µM | HCT-116 > 100 µM | NCI/ADR-RES > 100 µM | Malme-3M > 100 µM | HOP-92 > 100 µM | NCI-H460 > 100 µM | A549 > 100 µM | SNB-19 > 100 µM | MDA-N > 100 µM | SN12C > 100 µM | SK-MEL-5 > 100 µM | SF-539 > 100 µM | LOX IMVI > 100 µM | SF-268 > 100 µM | IGROV-1 > 100 µM | SK-OV-3 > 100 µM | OVCAR-8 > 100 µM | NCI-H522 > 100 µM | TK-10 > 100 µM | CAKI-1 > 100 µM | COLO 205 > 100 µM | HCC 2998 > 100 µM | CCRF-CEM > 100 µM | U-251 > 100 µM | UO-31 > 100 µM | HT-29 > 100 µM | NCI-H23 > 100 µM | SF-295 > 100 µM | HL-60 > 100 µM | MCF7 > 100 µM | K562 > 100 µM | PC-3 > 100 µM | SNB-75 > 100 µM | MDA-MB-231 > 100 µM | OVCAR-5 > 100 µM | Hs-578T > 100 µM | 786-0 > 100 µM | OVCAR-3 > 100 µM | M14 > 100 µM | SW-620 > 100 µM | RXF 393 > 100 µM
active: SR < 0.01 µM

O=C(O)c1ccc(P(=O)(O)c2ccc(C(=O)O)cc2Br)c(Br)c1
inactive: NCI-H226 > 100 µM | DU-145 > 100 µM | UACC-62 > 100 µM | BT-549 > 100 µM | HOP-62 > 100 µM | UACC-257 > 100 µM | SK-MEL-28 > 100 µM | MDA-MB-435 > 100 µM | SK-MEL-2 > 100 µM | HCT-116 > 100 µM | HOP-92 > 100 µM | A549 > 100 µM | SNB-19 > 100 µM | MDA-N > 100 µM | SN12C > 100 µM | SK-MEL-5 > 100 µM | SF-539 > 100 µM | EKVX > 100 µM | LOX IMVI > 100 µM | SF-268 > 100 µM | IGROV-1 > 100 µM | SK-OV-3 > 100 µM | RPMI-8226 > 100 µM | OVCAR-8 > 100 µM | NCI-H522 > 100 µM | TK-10 > 100 µM | CAKI-1 > 100 µM | COLO 205 > 100 µM | HCC 2998 > 100 µM | CCRF-CEM > 10 µM | KM12 > 100 µM | UO-31 > 100 µM | NCI-H23 > 100 µM | SF-295 > 100 µM | HL-60 > 100 µM | MCF7 > 100 µM | K562 > 100 µM | PC-3 > 100 µM | SNB-75 > 100 µM | MDA-MB-231 > 100 µM | MOLT-4 > 100 µM | Hs-578T > 100 µM | 786-0 > 100 µM | OVCAR-3 > 100 µM | M14 > 100 µM | SW-620 > 100 µM | RXF 393 > 100 µM
> 100 µM: HCT-15

COc1cccc(N2C(=O)C3c4[nH]c5ccc(C)cc5c4C4CCC(C)CC4C3C2=O)c1 (centres undefined)
> 100 µM: HCT-15
inactive: NCI-H226 > 100 µM | DU-145 > 100 µM | UACC-62 30.3 µM | BT-549 76 µM | ACHN > 100 µM | HOP-62 1.4 µM | UACC-257 > 100 µM | SK-MEL-28 > 100 µM | MDA-MB-435 > 100 µM | SR > 10 µM | SK-MEL-2 24.5 µM | HCT-116 > 100 µM | NCI/ADR-RES > 100 µM | Malme-3M > 100 µM | HOP-92 34 µM | NCI-H460 > 100 µM | A549 > 100 µM | SNB-19 73.3 µM | MDA-N > 100 µM | SN12C > 100 µM | SK-MEL-5 > 100 µM | SF-539 57.5 µM | EKVX 32.6 µM | LOX IMVI > 100 µM | SF-268 47.2 µM | IGROV-1 89.5 µM | SK-OV-3 30.3 µM | RPMI-8226 > 100 µM | OVCAR-8 > 100 µM | TK-10 36.1 µM | CAKI-1 39.5 µM | COLO 205 > 100 µM | HCC 2998 > 100 µM | CCRF-CEM 31.7 µM | U-251 51.3 µM | UO-31 > 100 µM | HT-29 > 100 µM | NCI-H23 > 100 µM | SF-295 35 µM | HL-60 10.6 µM | MCF7 > 100 µM | K562 30.3 µM | PC-3 > 100 µM | A498 49 µM | MDA-MB-231 26.5 µM | MOLT-4 > 10 µM | OVCAR-5 > 100 µM | Hs-578T 23.7 µM | 786-0 26.5 µM | OVCAR-3 > 100 µM | M14 > 100 µM | SW-620 > 100 µM | RXF 393 18.3 µM

COc1ccc(COCC[C@H](C)OC2OC(CO)C(O)C(O)C2O)cc1 (some centres undefined)
> 100 µM: HCT-15
inactive: NCI-H226 > 100 µM | DU-145 > 100 µM | UACC-62 > 100 µM | BT-549 > 100 µM | ACHN > 100 µM | HOP-62 > 100 µM | UACC-257 > 100 µM | SK-MEL-28 > 100 µM | OVCAR-4 > 100 µM | MDA-MB-435 > 100 µM | SR > 100 µM | SK-MEL-2 > 100 µM | HCT-116 > 100 µM | NCI/ADR-RES > 100 µM | HOP-92 > 100 µM | NCI-H460 > 100 µM | A549 > 100 µM | SNB-19 > 100 µM | SN12C > 100 µM | SK-MEL-5 > 100 µM | SF-539 > 100 µM | EKVX > 100 µM | LOX IMVI > 100 µM | SF-268 > 100 µM | IGROV-1 > 100 µM | SK-OV-3 > 100 µM | RPMI-8226 > 100 µM | OVCAR-8 > 100 µM | NCI-H522 > 100 µM | TK-10 > 100 µM | CAKI-1 > 100 µM | COLO 205 > 100 µM | HCC 2998 > 100 µM | CCRF-CEM > 100 µM | KM12 > 100 µM | U-251 > 100 µM | UO-31 > 100 µM | HT-29 > 100 µM | NCI-H23 > 100 µM | SF-295 > 100 µM | HL-60 > 100 µM | MCF7 > 100 µM | T47D > 100 µM | K562 > 100 µM | PC-3 > 100 µM | SNB-75 > 100 µM | A498 > 100 µM | MDA-MB-231 > 100 µM | MOLT-4 > 100 µM | OVCAR-5 > 100 µM | Hs-578T > 100 µM | 786-0 > 100 µM | OVCAR-3 > 100 µM | M14 > 100 µM | SW-620 > 100 µM | RXF 393 > 100 µM

C=C1C(=O)[C@]23[C@H](O)[C@H]1CC[C@H]2[C@@]12CO[C@@]3(O)C[C@@H]1C(C)(C)CC[C@@H]2O [MEGATHYRIN A]
6.95 µM: HCT-15
inactive: NCI-H226 8.22 µM | DU-145 9.53 µM | BT-549 4.37 µM | ACHN 4.84 µM | HOP-62 > 25 µM | UACC-257 6.01 µM | SK-MEL-28 7.14 µM | OVCAR-4 > 25 µM | MDA-MB-435 4.12 µM | SR 7.55 µM | HCT-116 5.21 µM | NCI/ADR-RES 9.66 µM | Malme-3M 6.71 µM | HOP-92 > 25 µM | A549 16.2 µM | SNB-19 21.2 µM | MDA-N 7.69 µM | SN12C 7.85 µM | SK-MEL-5 13 µM | SF-539 6.79 µM | EKVX 9.79 µM | LOX IMVI 4.25 µM | SF-268 6.34 µM | IGROV-1 7.14 µM | RPMI-8226 7.4 µM | OVCAR-8 8.57 µM | NCI-H522 3.63 µM | TK-10 9.75 µM | CAKI-1 8.47 µM | COLO 205 3.98 µM | HCC 2998 8.69 µM | CCRF-CEM 7.59 µM | KM12 6.22 µM | UO-31 13.8 µM | HT-29 6.21 µM | NCI-H23 7.4 µM | SF-295 12.3 µM | HL-60 8.45 µM | MCF7 6.18 µM | K562 7.41 µM | PC-3 9.2 µM | SNB-75 4.91 µM | A498 7.45 µM | MDA-MB-231 5.66 µM | MOLT-4 7.11 µM | OVCAR-5 > 25 µM | Hs-578T 7.29 µM | 786-0 9.57 µM | OVCAR-3 11.5 µM | SW-620 5.5 µM | RXF 393 4.03 µM
